Measurements as given in patent US20160370380A1, “COMBINATORIAL ANTIBODY DIAGNOSTIC” (PharmaSeq, Inc., priority 2015, published 2016).

Columns and labels:
anti-HA antibody [1] = test: anti-HA antibody binding assay on MTP-bound peptides (fluorescence, SAPE detection)
anti-HA antibody [2] = test: HA competitive binding: free peptide in solution competes with […] on MTPs for the anti-HA antibody; settings: for competitive activity against YPYDVPDYA peptide on MTPs for anti-HA antibody: free peptide with spacer GG in solution, FIG. 3

Substance	recognition by / affinity to anti-HA antibody in HA peptide assay (anti-HA antibody [1]; […], QC control group vial #9, data not shown)	competitive activity against YPYDVPDYA peptide on MTPs for anti-HA antibody (anti-HA antibody [2])	binding affinity to the anti-HA antibody (conclusion from competition and screen) (anti-HA antibody [2]; taken together from results of FIG. 3 and screen)	assay signal (binding to anti-HA antibody) in screen of random 4-aa peptide library (anti-HA antibody [1]; 5,307 random 4-aa peptides on MTPs, 10 ug/mL biotinylated anti-HA monoclonal antibody, fluorescence at 532 nm)
YPYDVPDYA	specifically recognized by anti-HA antibody	reduced assay signal	–	–
YHYY	–	competed well	high binding affinity	–
HKRK	–	no competitive activity	–	very low binding
